{"source": "patent US6403343B2", "about": "“Method of producing a taxane-type diterpene and a method of obtaining cultured cells which produce the taxane-type dilterpene at a high rate” (Mitsui Chemicals, Inc., priority 1993, dated 2002)", "format_in_all_cases": "cell-based", "key": {"[1]": {"tested_on": "cultured cells of Taxus baccata LINN", "assay": "Taxane-type diterpene yield and cell yield, shake culture of Taxus baccata cells with a jasmonic acid (or jasmone) added"}, "[2]": {"tested_on": "cultured cells of Taxus baccata LINN, layer of 1.07 g/ml or less", "assay": "Same culture using cells of the specific gravity layer of 1.07 g/ml or less (Ficoll), jasmonic acids added", "conditions": "250 μM added on 14th day, 7 more days; cells of layer of 1.07 g/ml or less", "method": "(§1) The cells with accelerated growth rate obtained by the method of Example 1 were fractionated firstly by a stainless steel mesh and cell clusters having the size of 250-840 μm were obtained. A medium having a specific gravity of 1.07 (g/ml) was produced by the use of Ficoll and the above-mentioned cells were layered over it and centrifuged at 700 rpm for 6 minutes. The cells were fractionated into two layers according to the difference of the specific gravity. The cells contained in the layer of 1.07 g/ml or less were fractionated and washed with 2% sucrose solution three times or more, to wash off Ficoll. After the washing, 1 g (fresh weight) of the cells was transferred to an Erlenmeyer flask containing 20 ml of liquid Woody Plant Medium and shake culture was carried out at 25° C. for 14 days. […] After completing the culture, the procedure of Example 1 was carried out.\nas §1, with “growth rates” for “growth rate”, “Example 8” for “Example 1”, “was inoculated” for “was transferred”\nas §1, with “Example 15” for “Example 1”, “was inoculated” for “was transferred”"}, "[3]": {"tested_on": "cultured cells of Taxus baccata LINN", "assay": "Taxane-type diterpenes in the culture medium after adding 100 μM methyl jasmonate (FIG. 1, FIG. 2)", "conditions": "7th day after the addition", "method": "The analytical results of taxane-type diterpenes existed in the culture medium of Example 15 prior to the addition of 100 μM of methyl jasmonate, on the third day after the addition, and on the 7th day after the addition, are shown in FIG. 1 and FIG. 2 On the 7th day of the culture, about half of the taxol and about 70% of the baccatin III were leaked in the medium.\nThe procedure of Example 20 was carried out except that the methyl ester of jasmonic acid was not added."}, "[4]": {"conditions": "0.01 μM added on 14th day, 7 more days"}, "[5]": {"conditions": "0.1 μM added on 14th day, 7 more days"}, "[6]": {"conditions": "1 μM added on 14th day, 7 more days"}, "[7]": {"conditions": "10 μM added on 14th day, 7 more days"}, "[8]": {"conditions": "25 μM added 4 times every two days from 7th day, total 100 μM"}, "[9]": {"conditions": "50 μM added on 14th day, 7 more days"}, "[10]": {"conditions": "100 μM added on 7th day, 14 more days"}, "[11]": {"conditions": "100 μM added on 14th day, 7 more days"}, "[12]": {"conditions": "100 μM added on first day, 20 more days"}, "[13]": {"conditions": "250 μM added on 14th day, 7 more days"}, "[14]": {"conditions": "500 μM added on 14th day, 7 more days"}, "[15]": {"conditions": "1000 μM added on 14th day, 7 more days"}}}
{"smiles": "CC/C=C\\CC1C(=O)CCC1CC(=O)OC", "note": "(stereo not drawn) [methyl jasmonate]", "values": [{"measurement": "cell yield", "setting": "[1]; [4]", "value": 12.2, "unit": "g/L"}, {"measurement": "yield of baccatin III", "setting": "[1]; [4]", "value": 0.3, "unit": "mg/L"}, {"measurement": "yield of cephalomannine", "setting": "[1]; [4]", "value": 1.6, "unit": "mg/L"}, {"measurement": "yield of taxol", "setting": "[1]; [4]", "value": 3.2, "unit": "mg/L"}, {"measurement": "cell yield", "setting": "[1]; [5]", "value": 12.1, "unit": "g/L"}, {"measurement": "yield of baccatin III", "setting": "[1]; [5]", "value": 0.3, "unit": "mg/L"}, {"measurement": "yield of cephalomannine", "setting": "[1]; [5]", "value": 1.6, "unit": "mg/L"}, {"measurement": "yield of taxol", "setting": "[1]; [5]", "value": 4.2, "unit": "mg/L"}, {"measurement": "cell yield", "setting": "[1]; [6]", "value": 11.3, "unit": "g/L"}, {"measurement": "yield of baccatin III", "setting": "[1]; [6]", "value": 0.4, "unit": "mg/L"}, {"measurement": "yield of cephalomannine", "setting": "[1]; [6]", "value": 1.8, "unit": "mg/L"}, {"measurement": "yield of taxol", "setting": "[1]; [6]", "value": 4.9, "unit": "mg/L"}, {"measurement": "cell yield", "setting": "[1]; [7]", "value": 11.3, "unit": "g/L"}, {"measurement": "yield of baccatin III", "setting": "[1]; [7]", "value": 0.7, "unit": "mg/L"}, {"measurement": "yield of cephalomannine", "setting": "[1]; [7]", "value": 2.1, "unit": "mg/L"}, {"measurement": "yield of taxol", "setting": "[1]; [7]", "value": 10.8, "unit": "mg/L"}, {"measurement": "cell yield", "setting": "[1]; [8]", "value": 10.7, "unit": "g/L"}, {"measurement": "yield of baccatin III", "setting": "[1]; [8]", "value": 14.9, "unit": "mg/L"}, {"measurement": "yield of cephalomannine", "setting": "[1]; [8]", "value": 2.2, "unit": "mg/L"}, {"measurement": "yield of taxol", "setting": "[1]; [8]", "value": 16.7, "unit": "mg/L"}, {"measurement": "cell yield", "setting": "[1]; [9]", "value": 10.9, "unit": "g/L"}, {"measurement": "yield of baccatin III", "setting": "[1]; [9]", "value": 3.1, "unit": "mg/L"}, {"measurement": "yield of cephalomannine", "setting": "[1]; [9]", "value": 2.2, "unit": "mg/L"}, {"measurement": "yield of taxol", "setting": "[1]; [9]", "value": 10.9, "unit": "mg/L"}, {"measurement": "cell yield", "setting": "[1]; [10]", "value": 9.7, "unit": "g/L"}, {"measurement": "yield of baccatin III", "setting": "[1]; [10]", "value": 10.6, "unit": "mg/L"}, {"measurement": "yield of cephalomannine", "setting": "[1]; [10]", "value": 2.1, "unit": "mg/L"}, {"measurement": "yield of taxol", "setting": "[1]; [10]", "value": 14.2, "unit": "mg/L"}, {"measurement": "cell yield", "setting": "[1]; [11]", "value": 9.8, "unit": "g/L"}, {"measurement": "yield of baccatin III", "setting": "[1]; [11]", "value": 9.2, "unit": "mg/L"}, {"measurement": "yield of cephalomannine", "setting": "[1]; [11]", "value": 2.0, "unit": "mg/L"}, {"measurement": "yield of taxol", "setting": "[1]; [11]", "value": 13.5, "unit": "mg/L"}, {"measurement": "cell yield", "setting": "[1]; [12]", "value": 7.2, "unit": "g/L"}, {"measurement": "yield of baccatin III", "setting": "[1]; [12]", "value": 1.2, "unit": "mg/L"}, {"measurement": "yield of cephalomannine", "setting": "[1]; [12]", "value": 1.7, "unit": "mg/L"}, {"measurement": "yield of taxol", "setting": "[1]; [12]", "value": 4.5, "unit": "mg/L"}, {"measurement": "cell yield", "setting": "[1]; [13]", "value": 10.0, "unit": "g/L"}, {"measurement": "yield of baccatin III", "setting": "[1]; [13]", "value": 12.9, "unit": "mg/L"}, {"measurement": "yield of cephalomannine", "setting": "[1]; [13]", "value": 2.0, "unit": "mg/L"}, {"measurement": "yield of taxol", "setting": "[1]; [13]", "value": 15.1, "unit": "mg/L"}, {"measurement": "cell yield", "setting": "[1]; [14]", "value": 10.6, "unit": "g/L"}, {"measurement": "yield of baccatin III", "setting": "[1]; [14]", "value": 13.0, "unit": "mg/L"}, {"measurement": "yield of cephalomannine", "setting": "[1]; [14]", "value": 1.9, "unit": "mg/L"}, {"measurement": "yield of taxol", "setting": "[1]; [14]", "value": 12.6, "unit": "mg/L"}, {"measurement": "cell yield", "setting": "[1]; [15]", "value": 5.9, "unit": "g/L"}, {"measurement": "yield of baccatin III", "setting": "[1]; [15]", "value": 1.2, "unit": "mg/L"}, {"measurement": "yield of cephalomannine", "setting": "[1]; [15]", "value": 1.8, "unit": "mg/L"}, {"measurement": "yield of taxol", "setting": "[1]; [15]", "value": 3.1, "unit": "mg/L"}, {"measurement": "cell yield", "setting": "[2]", "value": 10.2, "unit": "g/L"}, {"measurement": "yield of baccatin III", "setting": "[2]", "value": 18.7, "unit": "mg/L"}, {"measurement": "yield of cephalomannine", "setting": "[2]", "value": 3.2, "unit": "mg/L"}, {"measurement": "yield of taxol", "setting": "[2]", "value": 43.1, "unit": "mg/L"}, {"measurement": "baccatin III leaked in the medium", "setting": "[3]", "value": "about 70%"}, {"measurement": "taxol leaked in the medium", "setting": "[3]", "value": "about half"}]}
